Results: PubChem BioAssay AID1259407 (Chemical Carcinogenesis Research Information System (CCRIS), 2018)
Active and inactive are the calls of the source. The rule behind the calls is not given here.

Test system: CCRIS mutagenicity, Ames/micronucleus/aberration tests
Assay: CCRIS mutagenicity studies

Measured: mutagenic call

O=C1NC(=O)C(c2ccccc2)(c2ccccc2)N1
inactive: End Point: IN VITRO CHROMOSOMAL ABERRATIONS, Test System: CHINESE HAMSTER OVARY CELLS, Metabolic Activation: NONE inactive; negative | End Point: IN VITRO CHROMOSOMAL ABERRATIONS, Test System: CHINESE HAMSTER OVARY CELLS, Metabolic Activation: RAT, LIVER, S-9, AROCLOR 1254 inactive; negative | End Point: IN VIVO MICRONUCLEUS, Test System: BONE MARROW POLYCHROMATIC ERYTHROCYTES, Species: MOUSE, Strain/Sex: CD-1/MALE, FEMALE, Route: IP inactive; negative | End Point: IN VIVO MICRONUCLEUS, Test System: FETAL LIVER POLYCHROMATIC ERYTHROCYTES (MALES AND FEMALES), Species: MOUSE, Strain/Sex: FEMALE (PREGNANT), Route: IP inactive; negative | Test System: AMES SALMONELLA TYPHIMURIUM, Strain/Indicator: TA97, Metabolic Activation: NONE, Method: STANDARD PLATE inactive; negative | Test System: AMES SALMONELLA TYPHIMURIUM, Strain/Indicator: TA97, Metabolic Activation: RAT, LIVER, S-9, 3-METHYLCHOLANTHRENE, Method: PREINCUBATION (10, 20 OR 30 MIN) inactive; negative | Test System: AMES SALMONELLA TYPHIMURIUM, Strain/Indicator: TA97, Metabolic Activation: RAT, LIVER, S-9, AROCLOR 1254 (50 OR 100 UG), Method: STANDARD PLATE inactive; negative | Test System: AMES SALMONELLA TYPHIMURIUM, Strain/Indicator: TA97, Metabolic Activation: RAT, LIVER, S-9, AROCLOR 1254, Method: PREINCUBATION (10, 20 OR 30 MIN) inactive; negative | Test System: AMES SALMONELLA TYPHIMURIUM, Strain/Indicator: TA97, Metabolic Activation: RAT, LIVER, S-9, AROCLOR 1254, Method: STANDARD PLATE inactive; negative | Test System: AMES SALMONELLA TYPHIMURIUM, Strain/Indicator: TA97, Metabolic Activation: RAT, LIVER, S-9, PHENOBARBITONE, Method: PREINCUBATION (10, 20 OR 30 MIN) inactive; negative | Test System: AMES SALMONELLA TYPHIMURIUM, Strain/Indicator: TA98, Metabolic Activation: HAMSTER, LIVER, S-9, AROCLOR 1254 (10%), Method: PREINCUBATION inactive; negative | Test System: AMES SALMONELLA TYPHIMURIUM, Strain/Indicator: TA98, Metabolic Activation: NONE, Method: PREINCUBATION inactive; negative | Test System: AMES SALMONELLA TYPHIMURIUM, Strain/Indicator: TA98, Metabolic Activation: NONE, Method: STANDARD PLATE inactive; negative | Test System: AMES SALMONELLA TYPHIMURIUM, Strain/Indicator: TA98, Metabolic Activation: RAT, LIVER, S-9, 3-METHYLCHOLANTHRENE, Method: STANDARD PLATE inactive; negative | Test System: AMES SALMONELLA TYPHIMURIUM, Strain/Indicator: TA98, Metabolic Activation: RAT, LIVER, S-9, AROCLOR 1254 (10%), Method: PREINCUBATION inactive; negative | Test System: AMES SALMONELLA TYPHIMURIUM, Strain/Indicator: TA98, Metabolic Activation: RAT, LIVER, S-9, AROCLOR 1254 (50 OR 100 UG), Method: STANDARD PLATE inactive; negative | Test System: AMES SALMONELLA TYPHIMURIUM, Strain/Indicator: TA98, Metabolic Activation: RAT, LIVER, S-9, AROCLOR 1254, Method: PREINCUBATION (10, 20 OR 30 MIN) inactive; negative | Test System: AMES SALMONELLA TYPHIMURIUM, Strain/Indicator: TA98, Metabolic Activation: RAT, LIVER, S-9, AROCLOR 1254, Method: STANDARD PLATE inactive; negative | Test System: AMES SALMONELLA TYPHIMURIUM, Strain/Indicator: TA98, Metabolic Activation: RAT, LIVER, S-9, PHENOBARBITONE, Method: STANDARD PLATE inactive; negative | Test System: AMES SALMONELLA TYPHIMURIUM, Strain/Indicator: TA100, Metabolic Activation: HAMSTER, LIVER, S-9, AROCLOR 1254 (10%), Method: PREINCUBATION inactive; negative | Test System: AMES SALMONELLA TYPHIMURIUM, Strain/Indicator: TA100, Metabolic Activation: NONE, Method: PREINCUBATION inactive; negative | Test System: AMES SALMONELLA TYPHIMURIUM, Strain/Indicator: TA100, Metabolic Activation: NONE, Method: STANDARD PLATE inactive; negative | Test System: AMES SALMONELLA TYPHIMURIUM, Strain/Indicator: TA100, Metabolic Activation: RAT, LIVER, S-9, AROCLOR 1254 (10%), Method: PREINCUBATION inactive; negative | Test System: AMES SALMONELLA TYPHIMURIUM, Strain/Indicator: TA100, Metabolic Activation: RAT, LIVER, S-9, AROCLOR 1254 (50 OR 100 UG), Method: STANDARD PLATE inactive; negative | Test System: AMES SALMONELLA TYPHIMURIUM, Strain/Indicator: TA100, Metabolic Activation: RAT, LIVER, S-9, AROCLOR 1254, Method: STANDARD PLATE inactive; negative | Test System: AMES SALMONELLA TYPHIMURIUM, Strain/Indicator: TA1530, Metabolic Activation: NONE, Method: STANDARD PLATE inactive; negative | Test System: AMES SALMONELLA TYPHIMURIUM, Strain/Indicator: TA1530, Metabolic Activation: RAT, LIVER, S-9, AROCLOR 1254 (50 OR 100 UG), Method: STANDARD PLATE inactive; negative | Test System: AMES SALMONELLA TYPHIMURIUM, Strain/Indicator: TA1535, Metabolic Activation: HAMSTER, LIVER, S-9, AROCLOR 1254 (10%), Method: PREINCUBATION inactive; negative | Test System: AMES SALMONELLA TYPHIMURIUM, Strain/Indicator: TA1535, Metabolic Activation: NONE, Method: PREINCUBATION inactive; negative | Test System: AMES SALMONELLA TYPHIMURIUM, Strain/Indicator: TA1535, Metabolic Activation: RAT, LIVER, S-9, AROCLOR 1254 (10%), Method: PREINCUBATION inactive; negative | Test System: AMES SALMONELLA TYPHIMURIUM, Strain/Indicator: TA1537, Metabolic Activation: HAMSTER, LIVER, S-9, AROCLOR 1254 (10%), Method: PREINCUBATION inactive; negative | Test System: AMES SALMONELLA TYPHIMURIUM, Strain/Indicator: TA1537, Metabolic Activation: NONE, Method: PREINCUBATION inactive; negative | Test System: AMES SALMONELLA TYPHIMURIUM, Strain/Indicator: TA1537, Metabolic Activation: NONE, Method: STANDARD PLATE inactive; negative | Test System: AMES SALMONELLA TYPHIMURIUM, Strain/Indicator: TA1537, Metabolic Activation: RAT, LIVER, S-9, AROCLOR 1254 (10%), Method: PREINCUBATION inactive; negative | Test System: AMES SALMONELLA TYPHIMURIUM, Strain/Indicator: TA1537, Metabolic Activation: RAT, LIVER, S-9, AROCLOR 1254 (50 OR 100 UG), Method: STANDARD PLATE inactive; negative | Test System: AMES SALMONELLA TYPHIMURIUM, Strain/Indicator: TA1538, Metabolic Activation: NONE, Method: STANDARD PLATE inactive; negative | Test System: AMES SALMONELLA TYPHIMURIUM, Strain/Indicator: TA1538, Metabolic Activation: RAT, LIVER, S-9, 3-METHYLCHOLANTHRENE, Method: STANDARD PLATE inactive; negative | Test System: AMES SALMONELLA TYPHIMURIUM, Strain/Indicator: TA1538, Metabolic Activation: RAT, LIVER, S-9, AROCLOR 1254 (50 OR 100 UG), Method: STANDARD PLATE inactive; negative | Test System: AMES SALMONELLA TYPHIMURIUM, Strain/Indicator: TA1538, Metabolic Activation: RAT, LIVER, S-9, AROCLOR 1254, Method: PREINCUBATION (10, 20 OR 30 MIN) inactive; negative | Test System: AMES SALMONELLA TYPHIMURIUM, Strain/Indicator: TA1538, Metabolic Activation: RAT, LIVER, S-9, AROCLOR 1254, Method: STANDARD PLATE inactive; negative | Test System: AMES SALMONELLA TYPHIMURIUM, Strain/Indicator: TA1538, Metabolic Activation: RAT, LIVER, S-9, PHENOBARBITONE, Method: STANDARD PLATE inactive; negative | Test System: CHINESE HAMSTER OVARY, Strain/Indicator: CHO-K1-BH4 (HGPRT)/6-THIOGUANINE, Metabolic Activation: NONE, Method: SUSPENSION/PLATE inactive; negative | Test System: CHINESE HAMSTER OVARY, Strain/Indicator: CHO-K1-BH4 (HGPRT)/6-THIOGUANINE, Metabolic Activation: S-9, Method: SUSPENSION/PLATE inactive; negative | Test System: MOUSE LYMPHOMA, Strain/Indicator: L5178Y (TK+/TK-), Metabolic Activation: NONE, Method: SUSPENSION/PLATE inactive; negative | Test System: MOUSE LYMPHOMA, Strain/Indicator: L5178Y (TK+/TK-), Metabolic Activation: RAT, LIVER, S-9, AROCLOR 1254, Method: SUSPENSION/PLATE inactive; negative | Test System: MOUSE LYMPHOMA, Strain/Indicator: L5178Y (TK+/TK-), Metabolic Activation: S-9, Method: SUSPENSION/PLATE inactive; negative
